Source: patent US20250127162A1, “METHODS AND COMPOSITIONS FOR CONTROLLING PESTS IN RICE” (Globachem NV, priority 2022, published 2025)

System: Diabrotica speciosa
Assay: Dry bean field trials, Diabrotica speciosa damage and yield (Example 4)
Assay type: in vivo
Details: 150 L water/ha, two applications 7 d apart; for % Damage, % UNCK: 28 DAB, Lambda-cyhalothrin 100 at 0.15 L/ha; for Yield: plot
Description: All applications were made with an EC formulation containing 650 g/L of pelargonic acid (e.g., 685 g/L of 95% purity pelargonic acid), an anionic emulsifier and a branched fatty acid ester solvent.
Diabrotica speciosa is a major pest in rice.
Dry Beans—Diabrotica speciosa

Structure (SMILES): CC1(C)[C@H](C(=O)O[C@H](C#N)c2cccc(Oc3ccccc3)c2)[C@@H]1/C=C(\Cl)C(F)(F)F (racemic) [Lambda-cyhalothrin 100, Lambda-cyhalothrin, reference compound]
- % Damage, % UNCK (Trial 1, dry bean): 80.55b % UNCK
- Yield (Trial 1, dry bean): 2.55a Ton/ha
- % Damage, % UNCK (Trial 2, dry bean): 81.41c % UNCK
- Yield (Trial 2, dry bean): 2.29ab Ton/ha
